Key:
[1] = target: T1, Ephrin type-A receptor 6 (Homo sapiens) (UniProt Q9UF33); assay: (§1) Displacement of biotinylated ephrin-A1-Fc from EphA6 (unknown origin) preincubated for 1 hr followed by biotinylated-ephrin-A1-Fc addition measured after 4 hrs by ELISA
T1 sequence (whole entry): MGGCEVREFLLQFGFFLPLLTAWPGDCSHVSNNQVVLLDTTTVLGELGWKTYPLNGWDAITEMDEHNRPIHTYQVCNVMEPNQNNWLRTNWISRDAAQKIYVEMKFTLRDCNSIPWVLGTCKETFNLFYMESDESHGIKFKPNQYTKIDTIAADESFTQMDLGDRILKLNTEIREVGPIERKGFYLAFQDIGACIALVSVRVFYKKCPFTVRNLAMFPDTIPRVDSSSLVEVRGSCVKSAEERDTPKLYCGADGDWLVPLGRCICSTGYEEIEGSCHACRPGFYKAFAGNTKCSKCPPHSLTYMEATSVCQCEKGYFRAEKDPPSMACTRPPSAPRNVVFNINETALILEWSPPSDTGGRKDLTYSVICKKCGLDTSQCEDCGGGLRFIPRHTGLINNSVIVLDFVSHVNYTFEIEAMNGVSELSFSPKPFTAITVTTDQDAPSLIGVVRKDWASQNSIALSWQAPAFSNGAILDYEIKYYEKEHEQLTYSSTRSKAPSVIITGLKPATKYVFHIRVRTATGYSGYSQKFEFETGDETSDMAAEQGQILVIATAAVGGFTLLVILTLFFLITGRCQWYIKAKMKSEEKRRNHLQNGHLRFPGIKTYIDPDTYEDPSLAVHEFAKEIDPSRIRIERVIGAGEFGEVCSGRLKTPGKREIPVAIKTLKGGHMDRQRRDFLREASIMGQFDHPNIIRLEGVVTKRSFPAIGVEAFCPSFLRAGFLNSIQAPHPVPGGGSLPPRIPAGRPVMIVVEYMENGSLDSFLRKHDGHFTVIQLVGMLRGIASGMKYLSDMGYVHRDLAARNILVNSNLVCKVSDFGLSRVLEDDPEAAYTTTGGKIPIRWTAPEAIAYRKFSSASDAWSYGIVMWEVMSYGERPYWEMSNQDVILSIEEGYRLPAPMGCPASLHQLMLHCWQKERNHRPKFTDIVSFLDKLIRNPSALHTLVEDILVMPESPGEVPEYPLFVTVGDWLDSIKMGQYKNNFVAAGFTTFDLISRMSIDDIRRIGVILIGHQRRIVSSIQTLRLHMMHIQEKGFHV

Ephrin type-A receptor 6 = target: T2, Ephrin type-A receptor 6 (Homo sapiens, UniProt Q9UF33); assay: as §1
T2 sequence (Q9UF33 whole entry): T1 sequence (whole entry)

[2] = target: T3, Ephrin type-B receptor 4 (Homo sapiens) (UniProt P54760); assay: Displacement of biotinylated ephrin-B1-Fc from EphB4 (unknown origin) preincubated for 1 hr followed by biotinylated-ephrin-B1-Fc addition measured after 4 hrs by ELISA
T3 sequence (whole entry): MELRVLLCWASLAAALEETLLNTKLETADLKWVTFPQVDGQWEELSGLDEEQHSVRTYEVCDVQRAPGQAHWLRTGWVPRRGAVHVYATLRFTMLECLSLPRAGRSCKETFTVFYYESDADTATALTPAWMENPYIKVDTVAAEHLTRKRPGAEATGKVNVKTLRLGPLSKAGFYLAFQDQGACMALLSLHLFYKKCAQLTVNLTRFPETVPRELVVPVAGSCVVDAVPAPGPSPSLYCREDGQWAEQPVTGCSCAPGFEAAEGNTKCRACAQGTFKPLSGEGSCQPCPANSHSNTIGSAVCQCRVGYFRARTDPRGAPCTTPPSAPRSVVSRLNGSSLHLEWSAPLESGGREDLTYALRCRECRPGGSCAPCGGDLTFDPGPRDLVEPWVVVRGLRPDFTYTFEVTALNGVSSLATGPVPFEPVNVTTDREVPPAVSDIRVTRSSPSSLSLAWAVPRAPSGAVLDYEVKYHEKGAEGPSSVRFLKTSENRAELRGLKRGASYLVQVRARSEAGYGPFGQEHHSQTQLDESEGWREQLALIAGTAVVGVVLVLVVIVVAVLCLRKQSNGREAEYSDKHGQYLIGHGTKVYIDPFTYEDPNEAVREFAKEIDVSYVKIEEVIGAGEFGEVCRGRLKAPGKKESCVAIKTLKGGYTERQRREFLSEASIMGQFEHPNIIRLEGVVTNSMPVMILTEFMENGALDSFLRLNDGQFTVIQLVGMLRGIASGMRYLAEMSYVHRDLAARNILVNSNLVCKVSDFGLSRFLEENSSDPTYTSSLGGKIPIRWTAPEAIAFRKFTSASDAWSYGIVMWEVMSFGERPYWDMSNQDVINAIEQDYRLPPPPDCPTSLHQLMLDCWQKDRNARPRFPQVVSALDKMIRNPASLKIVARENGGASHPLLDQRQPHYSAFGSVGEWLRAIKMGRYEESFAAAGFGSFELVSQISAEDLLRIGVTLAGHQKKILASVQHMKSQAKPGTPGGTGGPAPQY

[3] = target: T4, Nuclear receptor subfamily 1 group I member 2 (Homo sapiens, UniProt O75469); assay: Activation of human recombinant PXR up to 10 uM by alphascreen method
T4 sequence (O75469 whole entry): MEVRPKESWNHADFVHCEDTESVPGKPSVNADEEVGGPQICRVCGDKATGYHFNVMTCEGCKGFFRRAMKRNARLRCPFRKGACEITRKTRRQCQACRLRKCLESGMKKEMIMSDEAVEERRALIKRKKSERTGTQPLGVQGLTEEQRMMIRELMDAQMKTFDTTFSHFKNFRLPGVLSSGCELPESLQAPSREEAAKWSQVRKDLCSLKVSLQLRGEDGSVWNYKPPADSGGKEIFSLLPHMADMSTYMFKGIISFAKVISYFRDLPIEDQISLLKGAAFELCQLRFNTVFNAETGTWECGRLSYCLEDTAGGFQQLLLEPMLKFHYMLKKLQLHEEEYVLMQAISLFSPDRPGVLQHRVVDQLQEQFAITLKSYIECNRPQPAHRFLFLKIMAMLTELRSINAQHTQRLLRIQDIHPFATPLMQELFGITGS

[4] = Cmax in mouse at 30 mg/kg, po administered as single dose by HPLC-MS analysis; format: ADME, organism-based; set-up: dose 30 mg/kg, route oral; settings: in vivo
[5] = n-octanol-water distribution coefficient, log D of the compound at pH 7.4 after 4 hrs by shake-flask method; format: physicochemical
[6] = Metabolic stability in mouse liver S9 fractions assessed as compound remaining at 1 uM after 1 hr by HPLC-ESI-MS/MS analysis in presence of NADPH regenerating system; format: ADME, subcellular, Liver S9 fraction; settings: read-out: Stability
[7] = Tmax in mouse at 30 mg/kg, po administered as single dose by HPLC-MS analysis; format: ADME, organism-based; settings: in vivo

C[C@H](CCC(=O)N[C@@H](Cc1c[nH]c2ccccc12)C(=O)O)[C@H]1CC[C@H]2[C@@H]3CC=C4C[C@@H](O)CC[C@]4(C)[C@H]3CC[C@]12C
inhibition [1]: Dose-dependent effect | IC50 (Ephrin type-A receptor 6): 3.5 µM | inhibition [2]: Dose-dependent effect | Activity [3]: Not Active | Cmax [4]: 1400 nM | logD at 4 h [5]: 4.01 | remaining at 1 h, 1 µM [6]: 70% | Tmax [7]: 30 min

Reference: ChEMBL document CHEMBL3734669, “Δ(5)-Cholenoyl-amino acids as selective and orally available antagonists of the Eph-ephrin system” (Eur J Med Chem, 2015)
